A short description of test [1]: Inhibition of NF-kappaB by ELISA assay. Also on record: species or system Homo sapiens. In general terms: ELISA stands for enzyme-linked immunosorbent assay.
In another test the test system is Lu1. The test can be described thus: Cytotoxicity against Lu1 cells. In kind it is functional. To be noted: Homo sapiens, read-out: ED50 (the source's name).
In a further test the test system is MCF7. The test can be described thus: Cytotoxicity against MCF7 cells. It counts as functional. To be noted: Homo sapiens, read-out: ED50 (the source's name).
The next test concerns LNCaP. The test can be described thus: Cytotoxicity against LNCaP cells. It counts as functional. To be noted: Homo sapiens, read-out: ED50 (the source's name).

Values after ≈ are worked out from the molar mass of the structure shown. A value given as a limit tells only on which side of the number the result lay.

`CCC(C)C(=O)N[C@@H]1CCCN1C(=O)[C@@H]1[C@@H](c2ccccc2)[C@]2(c3ccc(OC)cc3)Oc3cc(OC)cc(OC)c3[C@@]1(O)[C@@H]2OC(C)=O` (some centres undefined) [4-EPIAGLAIN A] had a half-inhibitory concentration (IC50) in test [1] of more than 5000 nM.

On to `COC(=O)[C@H]1[C@@H](O)[C@@]2(O)c3c(OC)cc(OC)cc3O[C@@]2(c2ccc(OC)cc2)[C@@H]1c1ccccc1` [AGLAFOLIN], for which the IC50 in test [1] was 2300 nM.

`C/C=C1/C(=O)C[C@H]2[C@@H]3CC=C4[C@@H](O)[C@@H](O)CC[C@]4(C)[C@H]3CC[C@]12C`: the EC50 amounted to 4.6 µg/mL (≈ 13.9 µM) in the test on Lu1, 4.2 µg/mL (≈ 12.7 µM) in the test on MCF7 and 4.7 µg/mL (≈ 14.2 µM) with LNCaP.

Take `CCC(C)C(=O)N[C@@H]1CCCN1C(=O)[C@H]1[C@H](c2ccccc2)[C@]2(c3ccc(OC)cc3)Oc3cc(OC)cc(OC)c3[C@@]1(O)[C@@H]2O` (some centres undefined) [AGLAIN B]: in test [1], the IC50 was more than 5000 nM.

Turning to `COc1ccc(C2OC(=O)c3c(OC)cc(OC)cc32)cc1` (centres undefined), in test [1], 1900 nM corresponded to half-maximal inhibition (IC50).

Regarding `COc1ccc([C@@]23Oc4cc(OC)cc(OC)c4[C@]2(O)[C@H](O)[C@H](C(=O)N(C)C)[C@H]3c2ccccc2)cc1` [ROCAGLAMIDE], the IC50 in test [1] was found to be 2000 nM.

In test [1], `COc1ccc([C@]23Oc4cc(OC)cc(OC)c4[C@](O)([C@H](C(=O)N4CCC[C@@H]4OC)[C@H]2c2ccccc2)[C@@H]3O)cc1` (relative stereo) [PONAPENSIN] came in with a 50% inhibitory concentration (IC50) of 60 nM.

For orientation: IC50 means the midpoint of a concentration-inhibition curve. A lower IC50 goes with greater potency in that assay.

The values above are taken from ChEMBL document CHEMBL1146268, “Ponapensin, a cyclopenta[bc]benzopyran with potent NF-kappaB inhibitory activity from Aglaia ponapensis” (Bioorg Med Chem Lett, 2007).
